Results reported in patent publication US6660891B2, “Methods for the production of D-chiro-inositol and the use of D-chiro inositol obtained therefrom” (Insmed Incorporated, priority 2000, dated 2003).

Key:
insulin sensitivity = details: oral supplementation, insulin resistant individuals; cited from earlier work
[1] = test system: glucose tolerance and insulin secretion; details: subjects with impaired glucose tolerance; DCI 1200 mg/day for 2 weeks; restored to normal levels; cited from earlier work
[2] = Stability in concentrated aqueous acid (HCl); type: physicochemical; details: about 5 N to 12 N HCl, about 65° C. to about 110° C.; conditions that destroy other sugars and demethylate D-Pinitol
From the text: Therefore this single reaction provides D-chiro-inositol that is substantially free of other contaminating carbohydrates, thus eliminating the need for subsequent purification techniques.
One aspect of the invention involves the conversion of […] a concentrated acid. […] Thus a crude D-chiro-inositol composition comprising one or more components where at least 10% (w/w) of the mass is a D-chiro-inositol moiety is subject to concentrated acid in a solution of about 5 N to 12 N HCl at a temperature in the range of about 65° C. to about 110° C. for a period of time.

[3] = test system: ovulation in women afflicted with polycystic ovary syndrome; details: 44 women with PCOS; DCI 1200 mg/day for 6-8 weeks; placebo 27%; cited from earlier work

stability under acidic conditions [2]: stable
Structure (SMILES): OC1C(O)C(O)C(O)C(O)C1O [DCI, D-chiro-inositol]
insulin sensitivity (insulin sensitivity): improves insulin sensitivity
glucose tolerance [1]: restored
insulin secretion [1]: restored
ovulation, proportion of patients [3]: 86%
